The text below walks through data of patent US12415794B2 (Edgewise Therapeutics, Inc., priority 2018, dated 2025).

Bounds are passed on as bounds.

In general, IC50 refers to the concentration that gives 50% inhibition. Lower therefore signals inhibition by little substance.

One test deals with T1, cardiac myofibrils (myosin ATPase).
T1 construct: frozen myofibril pellets obtained from cardiac tissue; from tissue
T1 sequence (P12883 whole entry): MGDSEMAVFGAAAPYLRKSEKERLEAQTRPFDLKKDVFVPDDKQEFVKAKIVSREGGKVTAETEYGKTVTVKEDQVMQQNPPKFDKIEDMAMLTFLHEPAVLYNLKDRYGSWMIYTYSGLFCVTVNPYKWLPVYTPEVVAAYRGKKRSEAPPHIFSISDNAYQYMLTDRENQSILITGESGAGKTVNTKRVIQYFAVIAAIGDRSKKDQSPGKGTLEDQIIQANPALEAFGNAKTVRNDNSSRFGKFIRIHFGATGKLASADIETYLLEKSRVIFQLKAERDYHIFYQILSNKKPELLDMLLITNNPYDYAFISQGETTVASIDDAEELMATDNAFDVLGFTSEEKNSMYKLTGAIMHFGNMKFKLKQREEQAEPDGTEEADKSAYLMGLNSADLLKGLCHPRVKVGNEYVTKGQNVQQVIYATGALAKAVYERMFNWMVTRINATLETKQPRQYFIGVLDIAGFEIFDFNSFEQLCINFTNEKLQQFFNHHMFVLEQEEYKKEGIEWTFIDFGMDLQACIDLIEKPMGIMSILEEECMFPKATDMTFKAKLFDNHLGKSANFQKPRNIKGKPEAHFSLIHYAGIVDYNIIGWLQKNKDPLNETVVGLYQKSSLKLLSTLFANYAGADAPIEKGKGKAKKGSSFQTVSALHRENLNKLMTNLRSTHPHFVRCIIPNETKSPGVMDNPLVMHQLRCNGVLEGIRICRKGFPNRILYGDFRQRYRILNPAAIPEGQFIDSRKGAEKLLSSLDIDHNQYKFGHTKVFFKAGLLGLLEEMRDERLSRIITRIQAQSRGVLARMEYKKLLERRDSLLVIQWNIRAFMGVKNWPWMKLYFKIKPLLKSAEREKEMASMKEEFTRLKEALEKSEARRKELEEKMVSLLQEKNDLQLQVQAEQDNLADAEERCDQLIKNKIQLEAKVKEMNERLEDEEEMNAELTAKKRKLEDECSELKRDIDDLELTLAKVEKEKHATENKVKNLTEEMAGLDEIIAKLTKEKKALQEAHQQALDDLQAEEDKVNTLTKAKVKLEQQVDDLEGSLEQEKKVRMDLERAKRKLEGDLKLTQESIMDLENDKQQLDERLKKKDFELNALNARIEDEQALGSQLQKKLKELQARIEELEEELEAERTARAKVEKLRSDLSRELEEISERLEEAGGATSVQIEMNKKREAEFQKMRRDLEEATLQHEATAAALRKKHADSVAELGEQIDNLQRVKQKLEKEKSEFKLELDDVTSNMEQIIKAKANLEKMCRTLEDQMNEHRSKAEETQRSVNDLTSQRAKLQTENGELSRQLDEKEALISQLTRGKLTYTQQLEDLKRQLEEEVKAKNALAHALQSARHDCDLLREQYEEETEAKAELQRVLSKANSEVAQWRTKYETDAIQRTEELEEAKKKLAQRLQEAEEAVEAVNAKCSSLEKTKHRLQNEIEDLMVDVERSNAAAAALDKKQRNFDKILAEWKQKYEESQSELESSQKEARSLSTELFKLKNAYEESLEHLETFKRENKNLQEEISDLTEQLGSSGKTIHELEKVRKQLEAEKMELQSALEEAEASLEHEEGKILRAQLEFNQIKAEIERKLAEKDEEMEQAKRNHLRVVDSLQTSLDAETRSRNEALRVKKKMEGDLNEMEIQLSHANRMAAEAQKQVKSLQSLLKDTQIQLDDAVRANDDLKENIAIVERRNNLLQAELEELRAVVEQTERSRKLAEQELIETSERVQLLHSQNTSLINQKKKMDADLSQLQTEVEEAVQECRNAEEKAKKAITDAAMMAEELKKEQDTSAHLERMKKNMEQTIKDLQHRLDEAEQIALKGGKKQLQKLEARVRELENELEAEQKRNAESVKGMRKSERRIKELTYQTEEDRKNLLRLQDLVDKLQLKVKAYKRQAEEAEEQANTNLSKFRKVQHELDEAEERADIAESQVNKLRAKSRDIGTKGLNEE
T1 sequence (P08590 whole entry partner): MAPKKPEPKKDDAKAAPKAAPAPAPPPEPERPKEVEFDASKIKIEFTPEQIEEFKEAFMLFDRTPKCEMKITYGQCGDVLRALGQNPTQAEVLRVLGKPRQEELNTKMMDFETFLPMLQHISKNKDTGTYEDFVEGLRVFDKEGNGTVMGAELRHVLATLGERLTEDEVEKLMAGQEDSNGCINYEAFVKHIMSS
T1 sequence (P10916 whole entry partner): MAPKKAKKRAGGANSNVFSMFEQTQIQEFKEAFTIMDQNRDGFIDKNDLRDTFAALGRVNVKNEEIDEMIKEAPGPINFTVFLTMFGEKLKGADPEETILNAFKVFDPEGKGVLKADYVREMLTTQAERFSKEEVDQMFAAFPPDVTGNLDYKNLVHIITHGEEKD
As to the kind of experiment: Cardiac Myofibril ATPase Assay (counter screen). Type of test: biochemical. The note with it: myofibrils 1.0 mg/mL, KCl omitted, Table 5A. As for the experimental part: (§1) Overview: Myosin ATPase activity is assessed by using a coupled reaction system, in which ADP generated by the myosin ATPase function is coupled to the disappearance of NADH through the pyruvate kinase/lactate dehydrogenase (PK-LDH) system. ATPase activity produces ADP, which is used as a substrate for PK to produce pyruvate and regenerate ATP. The pyruvate is then used as a substrate by LDH to oxidize NADH to NAD+. The rate of the reaction is monitored through the time-dependent disappearance of NADH using absorbance at 340 nm. Inhibition of ATPase activity by the assayed compounds is indicated by a reduced rate of NADH loss, relative to vehicle-treated controls, over the experimental time window. To assess the selectivity of the assayed compounds for skeletal myofibrils, the compounds are counter-screened in cardiac myofibrils.
Example 13: Cardiac Myofibril ATPase Assay
Following example 11, the counter screen was done using frozen myofibril pellets obtained from cardiac tissue. The assay was done in the same manner as above, with the following notable exceptions: the final well concentration of myofibrils was 1.0 mg/mL and KCl was omitted from the recipe.
Compounds of Table 1 to 3 were tested, and results of the assays appear in Tables 5a-5c herein. A=IC50 is less than or equal to 10 μM; B=IC50 is greater than 10 μM and less than 100 μM; C=IC50 is greater than 100 μM; and […].
In general terms: The purpose of a counterscreen is to sort out artefacts and off-target activity.
Take `CCNC(=O)Cn1nc(-c2ccc(N3C[C@@H]4COCC3CO4)nc2)ccc1=O` [Compound I-81, 2-(3-(6-((5R)-3,6-dioxa-8-azabicyclo[3.2.2]nonan-8-yl)pyridin-3-yl)-6-oxopyridazin-1(6H)-yl)-N-ethylacetamide]: the 50% inhibitory concentration (IC50) was > 100 µM.
For the molecule `CCNC(=O)Cn1nc(-c2cnc(OC(F)F)cc2F)ccc1=O` [Compound I-80, 2-(3-(6-(difluoromethoxy)-4-fluoropyridin-3-yl)-6-oxopyridazin-1(6H)-yl)-N-ethylacetamide], the half-maximal inhibitory concentration (IC50) was > 100 µM.
On the same count and under the same terms, the figure for `O=C(Cn1nc(-c2ccc(OC(F)(F)F)nc2)ccc1=O)NCc1ccccc1Cl` [Compound I-3, N-(2-chlorobenzyl)-2-(6-oxo-3-(6-(trifluoromethoxy)pyridin-3-yl)pyridazin-1(6H)-yl)acetamide] is > 100 µM; for `CC[C@H](C)NC(=O)Cn1nc(-c2ccc(OC(F)F)nc2)ccc1=O` [Compound I-9, (S)-N-(sec-butyl)-2-(3-(6-(difluoromethoxy)pyridin-3-yl)-6-oxopyridazin-1(6H)-yl)acetamide] it is > 100 µM.

Staying with this test, now noted: myofibrils 1.0 mg/mL, KCl omitted, Table 5C.
`COc1ccc(-c2ccc(=O)n(CC(=O)NCC(C)C)n2)c(F)c1` [IIIb-42, 2-(3-(2-fluoro-4-methoxyphenyl)-6-oxopyridazin-1(6H)-yl)-N-isobutylacetamide]: the IC50 was > 100 µM.
Same read-out and setting: the figure for `COc1ccc(-c2ccc(=O)n(CC(=O)N3CCCC3)n2)cc1` [IIIc-10, 6-(4-methoxyphenyl)-2-(2-oxo-2-(pyrrolidin-1-yl)ethyl)pyridazin-3(2H)-one] is > 100 µM.
Still for that read-out and setting: for `O=C(Cn1nc(-c2ccc(F)cc2)ccc1=O)NCc1cccc(F)c1` [IIIc-43, N-(3-fluorobenzyl)-2-(3-(4-fluorophenyl)-6-oxopyridazin-1(6H)-yl)acetamide] the value was > 100 µM.
On the same count and under the same terms, the figure for `CCOc1ccc(-c2ccc(=O)n(CC(=O)N3CCCc4ccccc43)n2)cc1` [IIIc-8, 2-(2-(3,4-dihydroquinolin-1(2H)-yl)-2-oxoethyl)-6-(4-ethoxyphenyl)pyridazin-3(2H)-one] is > 100 µM; for `O=C(Cn1nc(-c2ccc(Cl)cc2)ccc1=O)NC1CCCCC1` [IIIc-39, 2-(3-(4-chlorophenyl)-6-oxopyridazin-1(6H)-yl)-N-cyclohexylacetamide] it is > 100 µM.
Turning to `O=C(Cn1nc(-c2ccc(F)cc2)ccc1=O)N1CCCC1` [IIIc-46, 6-(4-fluorophenyl)-2-(2-oxo-2-(pyrrolidin-1-yl)ethyl)pyridazin-3(2H)-one], the concentration for half-maximal inhibition (IC50) is > 100 µM.
Still for that read-out and setting: for `CC(C)(CNC(=O)Cn1nc(-c2ccccc2)ccc1=O)c1ccccc1F` [IIIc-61, N-(2-(2-fluorophenyl)-2-methylpropyl)-2-(6-oxo-3-phenylpyridazin-1(6H)-yl)acetamide] the value was > 100 µM.
The same measure, in the same setting: the figure for `CCNC(=O)Cn1nc(-c2ccc(OCC3(F)COC3)cc2)ccc1=O` [IIIa-27, N-ethyl-2-(3-(4-((3-fluorooxetan-3-yl)methoxy)phenyl)-6-oxopyridazin-yl)acetamide] is > 100 µM; for `O=C(Cn1nc(-c2ccc(Cl)cc2)ccc1=O)NCc1cccc(Cl)c1` [IIIc-34, N-(3-chlorobenzyl)-2-(3-(4-chlorophenyl)-6-oxopyridazin-1(6H)-yl)acetamide] it is > 100 µM; for `O=C(Cn1nc(-c2ccc(Cl)cc2)ccc1=O)NCc1ccccc1Cl` [IIIc-14, N-(2-chlorobenzyl)-2-(3-(4-chlorophenyl)-6-oxopyridazin-1(6H)-yl)acetamide] it is > 100 µM.
Same read-out and setting: for `CC(C)NC(=O)Cn1nc(-c2ccc(Cl)cc2)ccc1=O` [IIIc-15, 2-(3-(4-chlorophenyl)-6-oxopyridazin-1(6H)-yl)-N-isopropylacetamide] the value was > 100 µM; for `Cc1cccnc1NC(=O)Cn1nc(-c2ccc(Cl)cc2)ccc1=O` [IIIc-24, 2-(3-(4-chlorophenyl)-6-oxopyridazin-1(6H)-yl)-N-(3-methylpyridin-2-yl)acetamide], > 100 µM.
Take `O=C(Cn1nc(-c2ccccc2)ccc1=O)NCCN1CCc2ccccc21` [IIIc-60, N-(2-(indolin-1-yl)ethyl)-2-(6-oxo-3-phenylpyridazin-1(6H)-yl)acetamide]: the 50% inhibitory concentration (IC50) was > 100 µM.
On the same count and under the same terms, for `COc1ccc(Cl)cc1NC(=O)Cn1nc(-c2ccc(Cl)cc2)ccc1=O` [IIIc-26, N-(5-chloro-2-methoxyphenyl)-2-(3-(4-chlorophenyl)-6-oxopyridazin-1(6H)-yl)acetamide] the value was > 100 µM; for `COc1ccc(OC)c(NC(=O)Cn2nc(-c3ccc(Cl)cc3)ccc2=O)c1` [IIIc-29, 2-(3-(4-chlorophenyl)-6-oxopyridazin-1(6H)-yl)-N-(2,5-dimethoxyphenyl)acetamide], > 100 µM.
As to `COc1ccc(-c2ccc(=O)n(CC(=O)N3CCC(C(N)=O)CC3)n2)cc1` [IIIc-11, 1-(2-(3-(4-methoxyphenyl)-6-oxopyridazin-1(6H)-yl)acetyl)piperidine-4-carboxamide], the IC50 was > 100 µM.
For the molecule `O=C(Cn1nc(-c2ccc(F)cc2)ccc1=O)Nc1ccccc1F` [IIIc-45, N-(2-fluorophenyl)-2-(3-(4-fluorophenyl)-6-oxopyridazin-1(6H)-yl)acetamide], the concentration for half-maximal inhibition (IC50) was > 100 µM.
In the case of `O=C(Cn1nc(-c2ccc(Cl)cc2)ccc1=O)NC1CCCC1` [IIIc-37, 2-(3-(4-chlorophenyl)-6-oxopyridazin-1(6H)-yl)-N-cyclopentylacetamide], the concentration for half-maximal inhibition (IC50) is > 100 µM.
`O=C(Cn1nc(-c2ccc(Cl)cc2)ccc1=O)NC1CC1` [IIIc-36, 2-(3-(4-chlorophenyl)-6-oxopyridazin-1(6H)-yl)-N-cyclopropylacetamide]: the IC50 was > 100 µM.
For the molecule `O=C(Cn1nc(-c2ccc(Br)cc2)ccc1=O)NC1CCCC1` [IIIc-41, 2-(3-(4-bromophenyl)-6-oxopyridazin-1(6H)-yl)-N-cyclopentylacetamide], the IC50 is > 100 µM.
Same read-out and setting: the figure for `O=C(Cn1nc(-c2ccc(Cl)cc2)ccc1=O)Nc1ccc2cc[nH]c2c1` [IIIc-21, 2-(3-(4-chlorophenyl)-6-oxopyridazin-1(6H)-yl)-N-(1H-indol-6-yl)acetamide] is > 100 µM.
Same read-out and setting: the figure for `COc1ccc(-c2ccc(=O)n(CC(=O)N3CCCC3)n2)cc1OC` [IIIc-9, 6-(3,4-dimethoxyphenyl)-2-(2-oxo-2-(pyrrolidin-1-yl)ethyl)pyridazin-3(2H)-one] is > 100 µM.
`O=C(Cn1nc(-c2ccc(Br)cc2)ccc1=O)NC1CCCCC1` [IIIc-42, 2-(3-(4-bromophenyl)-6-oxopyridazin-1(6H)-yl)-N-cyclohexylacetamide]: the half-inhibitory concentration (IC50) was > 100 µM.
The same measure, in the same setting: the figure for `O=C(Cn1nc(-c2ccccc2)ccc1=O)N(C1=CCCCC1)C1CC1` [IIIc-59, N-(cyclohex-1-en-1-yl)-N-cyclopropyl-2-(6-oxo-3-phenylpyridazin-1(6H)-yl)acetamide] is > 100 µM; for `COc1ccc(NC(=O)Cn2nc(-c3ccc(Cl)cc3)ccc2=O)c(OC)c1` [IIIc-25, 2-(3-(4-chlorophenyl)-6-oxopyridazin-1(6H)-yl)-N-(2,4-dimethoxyphenyl)acetamide] it is > 100 µM.

The target of a further test is skeletal myofibrils (myosin ATPase). The test is described as follows: Skeletal Myofibril ATPase Assay. Type of test: biochemical. The note with it: Table 4A. The procedure: FIG. 7 depicts the buffer preparation procedures of Buffer A and Buffer B for the skeletal myofibril ATPase assay described in Example 12. Buffers were stored on ice until use.
Example 12: Skeletal Myofibril ATPase Assay
as §1
Materials: The following stock solutions and reagents were used in the Skeletal Myofibril ATPase Assay:
Stock Solutions of pCa buffer. Combine PIPES, CaCl2, and EGTA solutions with 70 mL of water. Adjust pH to 7.0 and bring final volume to 100 mL.
Skeletal Myofibril ATPase Assay Procedure: BSA, ATP, NADH, PEP, and DTT solutions were thawed at room temperature, then transferred to ice. Pellet-frozen myofibrils were transferred with approximately twice the required volume into a sufficiently large tube and capped. Myofibrils were thawed by rolling in a water bath for approximately 15 min at room temperature and cooled on ice. Buffers A and B were prepared by adjusting volumes as necessary for required number of wells and stored on ice. 0.5 μL of the compounds to be assayed were added into wells. 25 μL of Buffer A was dispensed into the wells, followed by 25 μL of Buffer B. The wells were measured for absorbance at 340 nm, using a kinetic protocol in which the wells are read every 1.5-2 min for 45 min. The slope of the data was approximated by subtracting the minimum absorbance value from the maximum value for each well. This was accomplished either in the SoftMax Pro software or in a spreadsheet program such as Excel. Using GraphPad Prism 8.0, the data was normalized by assigning a value of 100% to the 1% DMSO vehicle wells. Typically, a normalized 0% value was simply assigned to a (Max−Min) value of 0. The normalized data was fit to a Four Parameter Logistic sigmoidal equation, constraining the bottom to be 0 or greater. Compounds of Table 1, 2, and 3 were tested and results of the assay appear in Tables 4a-4c. A=IC50 is less than or equal to 10 μM; B=IC50 is greater than 10 μM and less than 100 μM; C=IC50 is greater than 100 μM.
Turning to `CCNC(=O)Cn1nc(-c2ccc(NC)nc2)ccc1=O` [Compound I-47, N-ethyl-2-(3-(6-(methylamino)pyridin-3-yl)-6-oxopyridazin-1(6H)-yl)acetamide], the half-inhibitory concentration (IC50) was < 10 µM.
On the same count and under the same terms, the figure for `CCNC(=O)Cn1nc(-c2cnc(NC34CC(O)(C3)C4)nc2)ccc1=O` [Compound I-42, N-ethyl-2-(3-(2-((3-hydroxybicyclo[1.1.1]pentan-1-yl)amino)pyrimidin-5-yl)-6-oxopyridazin-1(6H)-yl)acetamide] is 10 to 100 µM; for `O=C(Cn1nc(-c2ccc(NC34CC(C3)C4)nc2)ccc1=O)NC12CC(C1)C2` [Compound I-46, N-(bicyclo[1.1.1]pentan-1-yl)-2-(3-(6-(bicyclo[1.1.1]pentan-1-ylamino)pyridin-3-yl)-6-oxopyridazin-1(6H)-yl)acetamide] it is < 10 µM.
